# Literature values in US20120093738A1, “TASTE-MASKED ORAL FORMULATIONS OF INFLUENZA ANTIVIRALS” (Rubicon Research Private Limited, priority 2009, published 2012).
# Details: reconstituted multi-dose suspensions
smiles,measurement,value
CCOC(=O)C1=C[C@@H](OC(CC)CC)[C@H](NC(C)=O)[C@@H](N)C1 [oseltamivir phosphate],time within which the suspension needs to be used,≤ 10 days
